Source: the kinase profiling compilation of Christmann-Franck et al. (2016)

Columns and labels:
Test in all cases: radiometric filter-binding kinase assay, Kinase HotSpot
Settings in all cases: compound 0.5 µM; ATP 10 µM
RAF1 (human) = RAF1 (human) (UniProt P04049)
EPHA3 (human) = EPHA3 (human) (UniProt P29320)
PRKCB2 (human) = PRKCB2 (human) (UniProt P05771)
MAPKAPK3 (human) = MAPKAPK3 (human) (UniProt Q16644)
CHUK (human) = CHUK (human) (UniProt O15111)
PTK2B (human) = PTK2B (human) (UniProt Q14289)
CDK6 CCND3 (human) = CDK6 CCND3 (human) (UniProt P30281+Q00534)
MAP4K5 (human) = MAP4K5 (human) (UniProt Q9Y4K4)
Sequence of MAP4K5 (human) (Q9Y4K4 whole entry, looked up): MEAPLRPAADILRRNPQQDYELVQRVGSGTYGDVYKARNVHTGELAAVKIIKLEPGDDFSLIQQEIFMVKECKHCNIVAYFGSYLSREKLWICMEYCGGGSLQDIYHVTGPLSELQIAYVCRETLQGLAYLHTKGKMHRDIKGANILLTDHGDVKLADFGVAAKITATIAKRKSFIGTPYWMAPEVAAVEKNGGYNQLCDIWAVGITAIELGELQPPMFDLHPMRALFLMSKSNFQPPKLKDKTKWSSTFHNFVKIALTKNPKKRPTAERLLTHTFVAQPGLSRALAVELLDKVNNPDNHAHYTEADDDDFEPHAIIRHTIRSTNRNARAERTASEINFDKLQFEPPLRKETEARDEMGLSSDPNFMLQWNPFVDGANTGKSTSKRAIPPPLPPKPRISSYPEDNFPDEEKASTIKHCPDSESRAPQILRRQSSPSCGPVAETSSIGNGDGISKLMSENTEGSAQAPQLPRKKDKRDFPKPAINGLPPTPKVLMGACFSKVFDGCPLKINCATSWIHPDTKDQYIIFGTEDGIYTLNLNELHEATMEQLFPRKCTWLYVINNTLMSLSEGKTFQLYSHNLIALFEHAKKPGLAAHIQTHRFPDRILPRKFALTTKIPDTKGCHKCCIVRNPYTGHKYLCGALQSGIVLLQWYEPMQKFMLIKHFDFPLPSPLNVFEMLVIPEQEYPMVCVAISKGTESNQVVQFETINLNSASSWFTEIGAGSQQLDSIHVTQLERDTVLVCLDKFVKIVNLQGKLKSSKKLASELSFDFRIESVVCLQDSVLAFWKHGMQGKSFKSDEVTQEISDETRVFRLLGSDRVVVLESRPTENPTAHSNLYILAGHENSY

TLK2 (human) = TLK2 (human) (UniProt Q86UE8)
STK38 (human) = STK38 (human) (UniProt Q15208)
HIPK3 (human) = HIPK3 (human) (UniProt Q9H422)
Sequence of HIPK3 (human) (Q9H422 whole entry, looked up): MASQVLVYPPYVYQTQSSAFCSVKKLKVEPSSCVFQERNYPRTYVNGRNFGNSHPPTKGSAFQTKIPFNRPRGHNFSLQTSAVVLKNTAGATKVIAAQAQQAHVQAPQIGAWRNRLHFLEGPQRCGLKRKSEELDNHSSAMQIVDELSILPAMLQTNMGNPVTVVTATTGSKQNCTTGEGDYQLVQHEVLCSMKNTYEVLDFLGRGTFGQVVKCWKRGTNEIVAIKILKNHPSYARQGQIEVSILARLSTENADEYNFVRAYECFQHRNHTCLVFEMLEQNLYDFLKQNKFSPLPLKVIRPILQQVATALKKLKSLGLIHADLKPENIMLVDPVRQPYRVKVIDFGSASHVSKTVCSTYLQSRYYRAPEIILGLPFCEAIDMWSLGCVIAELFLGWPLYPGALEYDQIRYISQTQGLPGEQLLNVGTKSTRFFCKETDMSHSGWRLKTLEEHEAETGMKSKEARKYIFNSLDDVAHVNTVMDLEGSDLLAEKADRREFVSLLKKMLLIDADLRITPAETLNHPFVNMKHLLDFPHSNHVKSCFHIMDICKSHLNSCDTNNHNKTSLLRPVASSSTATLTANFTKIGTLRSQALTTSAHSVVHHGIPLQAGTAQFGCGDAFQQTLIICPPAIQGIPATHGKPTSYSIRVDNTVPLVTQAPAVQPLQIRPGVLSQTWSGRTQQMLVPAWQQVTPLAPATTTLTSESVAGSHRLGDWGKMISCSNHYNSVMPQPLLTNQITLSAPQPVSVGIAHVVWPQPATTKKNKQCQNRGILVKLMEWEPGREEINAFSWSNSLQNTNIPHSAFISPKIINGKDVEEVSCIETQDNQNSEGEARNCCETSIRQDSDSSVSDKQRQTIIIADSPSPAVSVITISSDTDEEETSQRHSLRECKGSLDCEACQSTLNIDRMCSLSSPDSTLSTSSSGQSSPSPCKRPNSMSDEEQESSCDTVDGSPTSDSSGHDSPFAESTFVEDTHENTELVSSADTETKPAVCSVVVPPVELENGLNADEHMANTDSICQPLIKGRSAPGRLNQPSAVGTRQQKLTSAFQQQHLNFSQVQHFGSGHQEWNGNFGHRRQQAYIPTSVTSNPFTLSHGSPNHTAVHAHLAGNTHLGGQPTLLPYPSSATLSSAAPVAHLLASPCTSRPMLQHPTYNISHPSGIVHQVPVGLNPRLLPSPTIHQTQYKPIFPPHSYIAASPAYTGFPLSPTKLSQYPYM

CDK1 CCNA2 (human) = CDK1 CCNA2 (human) (UniProt P06493+P20248)
CSNK1D (human) = CSNK1D (human) (UniProt P48730)
PRKCH (human) = PRKCH (human) (UniProt P24723)
NEK9 (human) = NEK9 (human) (UniProt Q8TD19)
RPS6KA6 KD1 KD2 (human) = RPS6KA6 KD1 KD2 (human) (UniProt Q9UK32)
MAP4K4 (human) = MAP4K4 (human) (UniProt O95819)
Sequence of MAP4K4 (human) (O95819 whole entry, looked up): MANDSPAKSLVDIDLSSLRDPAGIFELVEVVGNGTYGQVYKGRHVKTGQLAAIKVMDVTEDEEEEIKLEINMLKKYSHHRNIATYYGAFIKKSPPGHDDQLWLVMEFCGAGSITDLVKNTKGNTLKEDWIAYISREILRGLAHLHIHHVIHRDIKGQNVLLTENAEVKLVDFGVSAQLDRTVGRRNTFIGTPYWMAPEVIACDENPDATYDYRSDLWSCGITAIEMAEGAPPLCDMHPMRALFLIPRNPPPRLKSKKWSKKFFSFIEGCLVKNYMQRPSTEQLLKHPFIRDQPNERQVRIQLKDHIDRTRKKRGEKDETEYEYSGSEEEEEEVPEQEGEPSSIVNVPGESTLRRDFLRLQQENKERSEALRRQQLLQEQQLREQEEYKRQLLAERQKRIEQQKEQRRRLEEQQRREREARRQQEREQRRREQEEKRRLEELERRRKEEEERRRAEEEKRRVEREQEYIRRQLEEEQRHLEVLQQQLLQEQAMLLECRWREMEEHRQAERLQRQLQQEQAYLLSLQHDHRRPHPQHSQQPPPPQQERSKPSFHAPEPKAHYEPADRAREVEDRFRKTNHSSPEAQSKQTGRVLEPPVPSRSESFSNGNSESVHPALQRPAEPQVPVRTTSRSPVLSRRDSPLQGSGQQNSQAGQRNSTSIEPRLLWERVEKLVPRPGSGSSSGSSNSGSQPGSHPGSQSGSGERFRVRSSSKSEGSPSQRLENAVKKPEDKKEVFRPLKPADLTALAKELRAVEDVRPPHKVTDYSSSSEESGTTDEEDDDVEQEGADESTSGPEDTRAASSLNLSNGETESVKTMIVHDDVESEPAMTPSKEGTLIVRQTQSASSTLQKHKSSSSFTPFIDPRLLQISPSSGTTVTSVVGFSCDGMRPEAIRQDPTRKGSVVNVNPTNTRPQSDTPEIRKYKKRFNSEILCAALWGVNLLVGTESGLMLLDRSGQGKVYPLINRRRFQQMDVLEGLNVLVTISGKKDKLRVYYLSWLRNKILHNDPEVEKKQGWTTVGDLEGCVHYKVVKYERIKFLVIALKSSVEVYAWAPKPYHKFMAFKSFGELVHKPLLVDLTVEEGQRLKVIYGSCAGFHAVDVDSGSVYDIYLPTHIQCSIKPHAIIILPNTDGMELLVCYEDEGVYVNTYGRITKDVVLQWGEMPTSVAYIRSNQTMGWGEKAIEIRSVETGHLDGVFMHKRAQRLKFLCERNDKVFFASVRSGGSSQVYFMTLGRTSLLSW

MAP3K7 TAB1 (human) = MAP3K7 TAB1 (human) (UniProt O43318+Q15750)
IKBKE (human) = IKBKE (human) (UniProt Q14164)
STK24 (human) = STK24 (human) (UniProt Q9Y6E0)
TGFBR2 (human) = TGFBR2 (human) (UniProt P37173)
Sequence of TGFBR2 (human) (P37173 whole entry, looked up): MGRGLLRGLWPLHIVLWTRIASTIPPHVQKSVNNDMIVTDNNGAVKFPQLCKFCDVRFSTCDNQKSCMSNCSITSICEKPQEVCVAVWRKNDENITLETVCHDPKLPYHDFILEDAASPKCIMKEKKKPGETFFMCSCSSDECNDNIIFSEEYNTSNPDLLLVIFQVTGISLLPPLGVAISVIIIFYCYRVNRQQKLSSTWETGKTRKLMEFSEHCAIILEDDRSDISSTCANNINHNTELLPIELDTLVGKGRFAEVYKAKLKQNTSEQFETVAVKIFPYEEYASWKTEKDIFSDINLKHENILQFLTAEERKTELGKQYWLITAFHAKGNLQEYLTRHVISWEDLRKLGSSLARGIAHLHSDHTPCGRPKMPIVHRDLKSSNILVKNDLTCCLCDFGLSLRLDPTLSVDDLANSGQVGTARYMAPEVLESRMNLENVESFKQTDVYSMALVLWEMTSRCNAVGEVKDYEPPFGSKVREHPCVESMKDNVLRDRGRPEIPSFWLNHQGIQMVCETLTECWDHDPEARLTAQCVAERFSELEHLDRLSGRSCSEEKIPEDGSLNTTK

DAPK3 (human) = DAPK3 (human) (UniProt O43293)
CAMK1 (human) = CAMK1 (human) (UniProt Q14012)
DMPK (human) = DMPK (human) (UniProt Q09013)
MAP3K8 (human) = MAP3K8 (human) (UniProt P41279)
MAPK10 (human) = MAPK10 (human) (UniProt P53779)
SRPK2 (human) = SRPK2 (human) (UniProt P78362)
EPHA6 (human) = EPHA6 (human) (UniProt Q9UF33)
PDPK1 (human) = PDPK1 (human) (UniProt O15530)
PRKACA (human) = PRKACA (human) (UniProt P17612)
IKBKB (human) = IKBKB (human) (UniProt O14920)
SYK (human) = SYK (human) (UniProt P43405)
BRAF (human) = BRAF (human) (UniProt P15056)
MAPK11 (human) = MAPK11 (human) (UniProt Q15759)
GSK3B (human) = GSK3B (human) (UniProt P49841)
CLK3 (human) = CLK3 (human) (UniProt P49761)
PAK1 (human) = PAK1 (human) (UniProt Q13153)
Sequence of PAK1 (human) (Q13153 whole entry, looked up): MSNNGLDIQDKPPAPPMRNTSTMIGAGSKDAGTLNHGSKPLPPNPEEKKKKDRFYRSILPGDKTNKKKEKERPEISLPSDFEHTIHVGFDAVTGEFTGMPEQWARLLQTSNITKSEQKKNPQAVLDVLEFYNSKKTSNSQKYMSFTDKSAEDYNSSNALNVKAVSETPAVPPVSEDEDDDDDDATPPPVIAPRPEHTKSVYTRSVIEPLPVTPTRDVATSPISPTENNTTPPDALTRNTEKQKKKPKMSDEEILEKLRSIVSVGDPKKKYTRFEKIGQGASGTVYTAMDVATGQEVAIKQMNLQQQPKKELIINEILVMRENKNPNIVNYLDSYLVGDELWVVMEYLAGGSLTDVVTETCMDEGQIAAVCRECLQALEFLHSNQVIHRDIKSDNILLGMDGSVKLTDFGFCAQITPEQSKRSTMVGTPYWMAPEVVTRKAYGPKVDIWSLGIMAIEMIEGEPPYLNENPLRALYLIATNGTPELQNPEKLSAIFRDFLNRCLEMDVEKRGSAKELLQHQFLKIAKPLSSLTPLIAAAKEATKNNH

ULK3 (human) = ULK3 (human) (UniProt Q6PHR2)
NUAK2 (human) = NUAK2 (human) (UniProt Q9H093)
WNK3 (human) = WNK3 (human) (UniProt Q9BYP7)
PTK6 (human) = PTK6 (human) (UniProt Q13882)
MAPK3 (human) = MAPK3 (human) (UniProt P27361)

Sequence of MAPKAPK3 (human) (Q16644 whole entry, looked up): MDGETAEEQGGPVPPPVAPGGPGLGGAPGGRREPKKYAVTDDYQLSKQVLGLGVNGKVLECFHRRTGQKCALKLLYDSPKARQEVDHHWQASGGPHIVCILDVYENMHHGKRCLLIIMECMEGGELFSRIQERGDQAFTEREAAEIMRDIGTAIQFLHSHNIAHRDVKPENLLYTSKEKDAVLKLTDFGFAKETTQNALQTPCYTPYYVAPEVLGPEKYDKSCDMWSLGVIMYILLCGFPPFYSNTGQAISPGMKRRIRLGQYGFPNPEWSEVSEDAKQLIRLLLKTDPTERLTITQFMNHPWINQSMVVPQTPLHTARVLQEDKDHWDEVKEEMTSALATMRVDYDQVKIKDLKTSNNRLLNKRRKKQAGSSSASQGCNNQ

With `O=C1Nc2ccc(Br)cc2/C1=C\c1cc2c([nH]1)CCCC2` the residual activity (RAF1 (human)) was 88.2%, the residual activity (EPHA3 (human)) was 94.6% and the residual activity (PRKCB2 (human)) was 85.5%. The residual activity (MAPKAPK3 (human)) was 95.1%, the residual activity (CHUK (human)) was 99.1% and the residual activity (PTK2B (human)) was 82.4%. For the same compound, the residual activity (CDK6 CCND3 (human)) was 85.8%, the residual activity (MAP4K5 (human)) was 17.7% and the residual activity (TLK2 (human)) was 101%. For the same compound, the residual activity (STK38 (human)) was 80.1%, the residual activity (HIPK3 (human)) was 96.7% and the residual activity (CDK1 CCNA2 (human)) was 96.3%. The residual activity (CSNK1D (human)) was 72.4%, the residual activity (PRKCH (human)) was 97.4% and the residual activity (NEK9 (human)) was 85.6%. For the same compound, the residual activity (RPS6KA6 KD1 KD2 (human)) was 78.6%, the residual activity (MAP4K4 (human)) was 6.84% and the residual activity (MAP3K7 TAB1 (human)) was 60.9%. The residual activity (IKBKE (human)) was 89.5%, the residual activity (STK24 (human)) was 94.2% and the residual activity (TGFBR2 (human)) was 101%. It also gave a residual activity (DAPK3 (human)) of 92.8%, a residual activity (CAMK1 (human)) of 98.4% and a residual activity (DMPK (human)) of 101%. It also gave a residual activity (MAP3K8 (human)) of 105%, a residual activity (MAPK10 (human)) of 98.7% and a residual activity (SRPK2 (human)) of 90.6%. It also gave a residual activity (EPHA6 (human)) of 89.2%, a residual activity (PDPK1 (human)) of 95.3% and a residual activity (PRKACA (human)) of 96.5%. For the same compound, the residual activity (IKBKB (human)) was 102%, the residual activity (SYK (human)) was 90.5% and the residual activity (BRAF (human)) was 92.5%. For the same compound, the residual activity (MAPK11 (human)) was 96.8%, the residual activity (GSK3B (human)) was 94.1% and the residual activity (CLK3 (human)) was 101%. The residual activity (PAK1 (human)) was 95.7%, the residual activity (ULK3 (human)) was 55.5% and the residual activity (NUAK2 (human)) was 133%. For the same compound, the residual activity (WNK3 (human)) was 93.8%, the residual activity (PTK6 (human)) was 82.3% and the residual activity (MAPK3 (human)) was 95%.
`O=C1C(Cl)=C(N2C(=O)CCC2=O)C(=O)c2ccccc21` was tested, and the residual activity (RAF1 (human)) was 93%, the residual activity (EPHA3 (human)) was 105% and the residual activity (PRKCB2 (human)) was 108%. The residual activity (MAPKAPK3 (human)) was 103%, the residual activity (CHUK (human)) was 101% and the residual activity (PTK2B (human)) was 105%. It also gave a residual activity (CDK6 CCND3 (human)) of 99.2%, a residual activity (MAP4K5 (human)) of 90.4% and a residual activity (TLK2 (human)) of 117%. The residual activity (STK38 (human)) was 102%, the residual activity (HIPK3 (human)) was 112% and the residual activity (CDK1 CCNA2 (human)) was 99.8%. It also gave a residual activity (CSNK1D (human)) of 99.4%, a residual activity (PRKCH (human)) of 93.1% and a residual activity (NEK9 (human)) of 98.3%. For the same compound, the residual activity (RPS6KA6 KD1 KD2 (human)) was 99.9%, the residual activity (MAP4K4 (human)) was 93.7% and the residual activity (MAP3K7 TAB1 (human)) was 99.5%. For the same compound, the residual activity (IKBKE (human)) was 99.6%, the residual activity (STK24 (human)) was 87% and the residual activity (TGFBR2 (human)) was 130%. For the same compound, the residual activity (DAPK3 (human)) was 114%, the residual activity (CAMK1 (human)) was 98.3% and the residual activity (DMPK (human)) was 98.5%. The residual activity (MAP3K8 (human)) was 91.8%, the residual activity (MAPK10 (human)) was 93.6% and the residual activity (SRPK2 (human)) was 100%. For the same compound, the residual activity (EPHA6 (human)) was 89.5%, the residual activity (PDPK1 (human)) was 100% and the residual activity (PRKACA (human)) was 88.8%. The residual activity (IKBKB (human)) was 101%, the residual activity (SYK (human)) was 95.9% and the residual activity (BRAF (human)) was 96.3%. The residual activity (MAPK11 (human)) was 105%, the residual activity (GSK3B (human)) was 100% and the residual activity (CLK3 (human)) was 114%. It also gave a residual activity (PAK1 (human)) of 96.3%, a residual activity (ULK3 (human)) of 102% and a residual activity (NUAK2 (human)) of 86.7%. For the same compound, the residual activity (WNK3 (human)) was 96.4%, the residual activity (PTK6 (human)) was 94.8% and the residual activity (MAPK3 (human)) was 99.3%.
For `c1ccc2c(-c3ccncc3)c[nH]c2c1`, the residual activity (RAF1 (human)) was 93.2%, the residual activity (EPHA3 (human)) was 107% and the residual activity (PRKCB2 (human)) was 89.5%. The residual activity (MAPKAPK3 (human)) was 97.8%, the residual activity (CHUK (human)) was 107% and the residual activity (PTK2B (human)) was 95.3%. It also gave a residual activity (CDK6 CCND3 (human)) of 101%, a residual activity (MAP4K5 (human)) of 106% and a residual activity (TLK2 (human)) of 95.8%. The residual activity (STK38 (human)) was 109%, the residual activity (HIPK3 (human)) was 107% and the residual activity (CDK1 CCNA2 (human)) was 90.6%. For the same compound, the residual activity (CSNK1D (human)) was 105%, the residual activity (PRKCH (human)) was 84.9% and the residual activity (NEK9 (human)) was 101%. It also gave a residual activity (RPS6KA6 KD1 KD2 (human)) of 112%, a residual activity (MAP4K4 (human)) of 54.4% and a residual activity (MAP3K7 TAB1 (human)) of 95.5%. It also gave a residual activity (IKBKE (human)) of 96.4%, a residual activity (STK24 (human)) of 93.5% and a residual activity (TGFBR2 (human)) of 119%. For the same compound, the residual activity (DAPK3 (human)) was 101%, the residual activity (CAMK1 (human)) was 108% and the residual activity (DMPK (human)) was 109%. The residual activity (MAP3K8 (human)) was 99%, the residual activity (MAPK10 (human)) was 102% and the residual activity (SRPK2 (human)) was 103%. For the same compound, the residual activity (EPHA6 (human)) was 104%, the residual activity (PDPK1 (human)) was 96.6% and the residual activity (PRKACA (human)) was 91.6%. For the same compound, the residual activity (IKBKB (human)) was 102%, the residual activity (SYK (human)) was 98.6% and the residual activity (BRAF (human)) was 94%. For the same compound, the residual activity (MAPK11 (human)) was 112%, the residual activity (GSK3B (human)) was 104% and the residual activity (CLK3 (human)) was 92.6%. For the same compound, the residual activity (PAK1 (human)) was 99.1%, the residual activity (ULK3 (human)) was 83% and the residual activity (NUAK2 (human)) was 136%. It also gave a residual activity (WNK3 (human)) of 100%, a residual activity (PTK6 (human)) of 85.5% and a residual activity (MAPK3 (human)) of 98.9%.
